{"source": "patent US20220347167A1", "about": "“A NEW TREATMENT FOR MEIBOMIAN GLAND DYSFUNCTION” (The Schepens Eye Research Institute, Inc., priority 2019, published 2022)", "system": "HIF1α", "assay": "HIF1α expression in CoCl2-stimulated HepG2 cells (positive control for HIF1α antibody)", "assay_type": "cell-based, human", "details": "4 hours of CoCl2 treatment", "description": "After culture in DMEM/F12+10% FBS under normoxic conditions for 7 days, cells were exposed to 21% O2, 1% O2 and 10 μM Roxa, alone or in combination, for an additional 6 hours. The cells were lysed in 2× Laemmli sample buffer (Bio-Rad Laboratories, Hercules, Calif.) and sonicated to extract nuclear protein [Andersen et al. (2002) Current biology: CB 12:1-11]. Human hepatocellular carcinoma cell lines (HepG2 cells) (America Type Culture Collection, Manassas, Va.), which express high concentration of HIF1α under CoCl2 stimulation for 4 hours [Yoo et al. (2014) Journal of cellular biochemistry 115:1147-1158], were used as a positive control for HIF1α antibody. The CoCl2 was purchased from Sigma-Aldrich Corp (St. Louis, Mo.). Cell lysates were then evaluated for HIF1α (1:1000, BD Biosciences, San Jose, Calif.) or β-actin (1:10,000, Cell Signaling Technology) expression. Secondary antibodies were horseradish peroxidase (HRP)-conjugated goat anti-rabbit or goat anti-mouse IgG (both 1:5000, Sigma-Aldrich). Densitometry was performed using ImageJ (at the World Wide Web website of rsb.info.nih.gov/ij).", "data": [{"smiles": "[Cl-].[Cl-].[Co+2]", "note": "[CoCl2, cobalt (II) chloride]", "values": [{"measurement": "HIF1α protein in HepG2 cell lysates", "value": "substantial amounts of HIF1α protein"}]}]}
